Measurements: US20030170181A1, “Method for preventing abuse of methylphenidate” (priority 1999, published 2003)
Where “and” joins values, the source holds several entries; their conditions need not be identical. Equal values may be shown once. Read-outs that look alike come from different tables or passages of the source.

Experiments:
[1] = Pharmacokinetics of d-threo and l-threo methylphenidate in plasma after intravenous administration of 10 mg racemic methylphenidate; conditions: for CL / MRT / Vdss / t½ / clearance / Vd / half-life: plasma, IV 10 mg racemic methylphenidate; for clearance / Vd / half-life: male, human, iv, 10 mg; for clearance: CL; for Vd: Vdss; for half-life: t½; for plasma levels of d-MPH versus l-MPH: methylphenidate administered intravenously, up to 1.5 hours post dose
Method: Eleven healthy male subjects were administered 10 mg of racemic methylphenidate (Ritalin®) by intravenous (IV) administration and 40 mg of racemic methylphenidate (Ritalin®) by immediate release (IR) oral administration.

[2] = Pharmacokinetics of d-threo and l-threo methylphenidate in plasma after oral administration of 40 mg immediate release racemic methylphenidate; assay type: in vivo, human; conditions: for fraction metabolized / bioavailability: after oral administration of commercially available racemic methylphenidate; for Cmax / Tmax / t½ / bioavailability / half-life: plasma; for Cmax / Tmax / t½ / half-life: oral 40 mg immediate release methylphenidate; for bioavailability: read-out: bioavailability in blood plasma; for half-life: read-out: t½ (converted)
[3] = cited from earlier work
males with ADHD = assay: Combined pharmacokinetic/pharmacodynamic study of dose regimens of methylphenidate on activity and attention (OPTAX measures); assay type: in vivo, human; conditions: pulsatile dosing schedule 2 (PD2): 0.4, 0.4, 0.2 mg/kg at 0, 240, 480 min; compared with CD1, CD2, PD1; twelve-hour day
Description: Combined pharmacokinetic/pharmacodynamic studies of methylphenidate using different dosage regiments were designed to determine if regimens that produced stable or rising methylphenidate levels had benefits, or if fluctuating levels were necessary to prevent rapid development of tolerance (tachyphylaxis). The experimental subjects were a group of seventy-three males with ADHD recruited from the general population through a newspaper advertisement. Each subject was between the ages of 9 to 12, was objectively hyperactive, and responded positively to methylphenidate. Hyperactivity levels of each boy were determined through OPTAX™ measures, a clinical tool that provides high-resolution assessment of movement patterns during performance of a novel, monotonous, yet challenging cognitive vigilance task. Through the OPTAX™ measures, it is possible to identify differences between drug regimens based solely on dosage schedule, while holding total daily dose constant. Of the 73 original boys, thirteen were excluded based on lack of symptoms by parent interview or on lack of objective hyperactivity greater than 25% over controls on OPTAX™ measures. […]
The double blind parallel group study evaluated the efficacy of methylphenidate for the treatment of ADHD when given in a near continuous amount throughout the day and in pulsatile or fluctuating doses throughout the day. […]

[4] = individual subjects 1-11, listed as l
[5] = male, human, po, 40 mg, mean of 11 subjects, read-out: Cmax
[6] = male, human, po, 40 mg, mean of 11 subjects, read-out: Tmax
[7] = male, human, po, 40 mg, mean of 11 subjects
[8] = racemic d,l-threo methylphenidate
[9] = individual subjects 1-11, listed as d

SMILES | clearance ([1]; mean of 11 subjects) | Vd ([1]; mean of 11 subjects) | half-life ([1]; mean of 11 subjects) | MRT ([1]; mean of 11 subjects) | plasma levels of d-MPH versus l-MPH [1] | fraction metabolized [2] | bioavailability ([2]; male, human, 40 mg) | Cmax [2, 5] | Tmax [2, 6] | half-life [2, 7] | other results
COC(=O)[C@@H](c1ccccc1)[C@@H]1CCCCN1 [l-MPH, l-threo methylphenidate] | 12.2 mL/min/kg | 1.8 L/kg | 3.61 h | 2.44 H | approximately equivalent plasma levels | approximately 95% | 5% | 2.98 ng/mL | 2.2 h | 3.93 h | CL [1, 4]: 0.56 L/kg · h^−1 and 0.82 L/kg · h^−1 and 0.59 L/kg · h^−1 and 0.41 L/kg · h^−1 and 1.05 L/kg · h^−1 and 0.26 L/kg · h^−1 and 0.89 L/kg · h^−1 and 0.49 L/kg · h^−1 and 0.78 L/kg · h^−1 and 1.11 L/kg · h^−1 and 1.02 L/kg · h^−1; MRT [1, 4]: 2.28 H and 2.02 H and 2.37 H and 2.63 H and 2.12 H and 2.50 H and 3.34 H and 1.42 H and 3.03 H and 2.84 H; Vdss [1, 4]: 1.27 L/kg and 1.86 L/kg and 1.19 L/kg and 0.97 L/kg and 2.77 L/kg and 0.56 L/kg and 2.23 L/kg and 1.63 L/kg and 1.03 L/kg and 3.36 L/kg and 2.89 L/kg; t½ [1, 4]: 2.08 h and 4.19 h and 2.63 h and 3.57 h and 5.11 h and 2.93 h and 2.21 h and 3.47 h and 4.06 h and 5.23 h; Cmax [2, 4]: 4.23 ng/mL and 2.49 ng/mL and 3.26 ng/mL and 1.59 ng/mL and 3.61 ng/mL and 1.49 ng/mL and 2.88 ng/mL and 4.01 ng/mL and 2.27 ng/mL and 3.03 ng/mL and 3.95 ng/mL; Tmax [2, 4]: 2.0 h and 3.0 h and 1.0 h and 1.5 h and 4.0 h; t½ [2, 4]: 4.61 h and 2.48 h and 4.06 h and 3.80 h and 3.09 h and 3.91 h and 4.24 h and 3.84 h and 3.55 h and 4.23 h and 5.41 h
COC(=O)C(c1ccccc1)C1CCCCN1 (racemic) [methylphenidate, α-phenyl-2-piperidine-acetic acid methyl ester] | – | – | – | – | – | – | – | – | – | – | time of maximum drug concentration ([3]; after oral administration): about two; duration of action [3, 8]: one to four; pharmacokinetic elimination half-life [3, 8]: two to three; improvement in activity (males with ADHD): most consistent improvement; improvement in attention (males with ADHD): most consistent improvement
COC(=O)[C@H](c1ccccc1)[C@H]1CCCCN1 [d-MPH, d-threo-methylphenidate] | 6.67 mL/min/kg | 2.65 L/kg | 5.96 h | 6.53 H | approximately equivalent plasma levels | approximately 78% | ~22% | 18.1 ng/mL | 2.4 h | 5.69 h | CL [1, 9]: 0.32 L/kg · h^−1 and 0.45 L/kg · h^−1 and 0.33 L/kg · h^−1 and 0.28 L/kg · h^−1 and 0.53 L/kg · h^−1 and 0.20 L/kg · h^−1 and 0.63 L/kg · h^−1 and 0.34 L/kg · h^−1 and 0.44 L/kg · h^−1 and 0.41 L/kg · h^−1 and 0.42 L/kg · h^−1; MRT [1, 9]: 6.49 H and 4.63 H and 5.23 H and 5.75 H and 6.25 H and 4.68 H and 6.79 H and 5.86 H and 7.90 H and 9.44 H and 8.80 H; Vdss [1, 9]: 2.09 L/kg and 2.10 L/kg and 1.73 L/kg and 1.59 L/kg and 3.28 L/kg and 0.92 L/kg and 4.27 L/kg and 2.01 L/kg and 3.51 L/kg and 3.91 L/kg and 3.68 L/kg; t½ [1, 9]: 4.88 h and 4.81 h and 4.17 h and 5.38 h and 6.65 h and 3.97 h and 6.93 h and 4.65 h and 6.80 h and 8.68 h and 8.62 h; Cmax [2, 9]: 12.42 ng/mL and 16.49 ng/mL and 13.81 ng/mL and 22.02 ng/mL and 18.52 ng/mL and 24.54 ng/mL and 22.48 ng/mL and 18.25 ng/mL and 22.91 ng/mL and 13.24 ng/mL; Tmax [2, 9]: 2.0 h and 3.0 h and 1.0 h and 4.0 h; t½ [2, 9]: 5.44 h and 6.67 h and 4.44 h and 5.83 h and 4.14 h and 6.22 h and 4.81 h and 6.31 h and 6.09 h and 5.29 h and 8.38 h; Cmax ([2]; male, human, po, 40 mg, individual subjects 1-11, read-out: Cmax): 14.7 ng/mL
